Laboratory results: patent US20230066946A1, “1,5-DIPHENYLPYRAZOLYL-3-OXYALKYL ACIDS AND 1-PHENYL-5-THIENYLPYRAZOLYL-3-OXYALKYL ACIDS AND THE USE THEREOF FOR CONTROL OF UNWANTED PLANT GROWTH” (Bayer Aktiengesellschaft, priority 2019, published 2023)

Legend:
VERPE [1] = experiment: Pre-emergence herbicidal action against VERPE; type: in vivo, Veronica persica; settings: 320 g/ha, scored visually after about 3 weeks vs untreated controls
Text: (§1) Seeds of mono- and dicotyledonous weed plants are placed in plastic pots in sandy loam soil (doubly sown with one species each of mono- or dicotyledonous weed plants per pot) and covered with soil. The compounds of the invention, formulated in the form of wettable powders (WP) or as emulsion concentrates (EC), are then applied onto the surface of the covering soil as aqueous suspension or emulsion with addition of 0.5% additive at a water application rate equivalent to 600 litres per hectare. After the treatment, the pots are placed in a greenhouse and kept under good growth conditions for the trial plants. After about 3 weeks, the effect of the preparations is scored visually in comparison with untreated controls as percentages. For example, 100% activity=the plants have died, 0% activity=like control plants. [table] Tables 4.1-4.15 below show the effects of selected compounds of the general formula (I) according to Tables 1 to 3 on various harmful plants at an application rate corresponding to 1280 or 320 g/ha, which have been obtained by the aforementioned experimental method.

POLCO [2] = experiment: Pre-emergence herbicidal action against POLCO; type: in vivo, Polygonum convolvulus; settings: 320 g/ha, scored visually after about 3 weeks vs untreated controls
Text: as §1

MATIN = experiment: Post-emergence herbicidal action against MATIN; type: in vivo, Matricaria inodora; settings: visual rating about 3 weeks after treatment
How it was run: (§2)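 Greenhouse, sandy loam, one-leaf stage; compound as WP/EC at 1280 or 320 g/ha plus 0.5% additive (600 L/ha). Visual % activity at ~3 weeks relative to untreated plants.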

AMARE [3] = experiment: Pre-emergence herbicidal action against AMARE; type: in vivo, Amaranthus retroflexus; settings: scored visually after about 3 weeks vs untreated controls; for Pre-emergence action at 320 g/ha against AMARE in %: 100% = plants have died, 0% = like control plants; for Pre-emergence action against AMARE in %: 1280 g/ha
How it was run: (§3)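 Greenhouse pot test on sown, soil-covered weed seeds; spray of WP or EC formulation at 1280 or 320 g/ha onto covering soil. Effect rated visually after about 3 weeks (0% = like control, 100% = dead).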

AMARE [4] = experiment: Post-emergence herbicidal action against AMARE; type: in vivo, Amaranthus retroflexus; settings: visual rating about 3 weeks after treatment
How it was run: as §2

PHBPU = experiment: Post-emergence herbicidal action against PHBPU; type: in vivo, Pharbitis purpurea; settings: 320 g/ha, visual rating about 3 weeks after treatment
Procedure: (§4) [table] Seeds of mono- and dicotyledonous weed plants are placed in plastic pots in sandy loam soil (twin sowing with one species each of mono- or dicotyledonous weed plants per pot), covered with soil and cultivated in a greenhouse under controlled growth conditions. 2 to 3 weeks after sowing, the test plants are treated at the one-leaf stage. The compounds of the invention, formulated in the form of wettable powders (WP) or as emulsion concentrates (EC), are applied to the green parts of the plants as aqueous suspension or emulsion with addition of 0.5% additive at a water application rate equivalent to 600 litres per hectare. After the test plants have been kept in the greenhouse under optimum growth conditions for about 3 weeks, the activity of the preparations is rated visually in comparison to untreated controls. For example, 100% activity=the plants have died, 0% activity=like control plants. Tables 5.1-5.16 below show the effects of selected compounds of the general formula (I) according to Tables 1 to 3 on various harmful plants at an application rate corresponding to 1280 or 320 g/ha, which have been obtained by the aforementioned experimental method.

VIOTR = experiment: Post-emergence herbicidal action against VIOTR; type: in vivo, Viola tricolor; settings: 320 g/ha, visual rating about 3 weeks after treatment
Procedure: as §4

VERPE [5] = experiment: Post-emergence herbicidal action against VERPE; type: in vivo, Veronica persica; settings: 320 g/ha, visual rating about 3 weeks after treatment
Procedure: as §4

STEME [6] = experiment: Post-emergence herbicidal action against STEME; type: in vivo, Stellaria media; settings: visual rating about 3 weeks after treatment
How it was run: as §2

SETVI [7] = experiment: Pre-emergence herbicidal action against SETVI; type: in vivo, Setaria viridis; settings: 1280 g/ha, scored visually after about 3 weeks vs untreated controls
How it was run: as §3

SETVI [8] = experiment: Post-emergence herbicidal action against SETVI; type: in vivo, Setaria viridis; settings: 1280 g/ha, post-emergence at one-leaf stage, rated visually after about 3 weeks vs untreated controls
Procedure: as §4

POLCO [9] = experiment: Post-emergence herbicidal action against POLCO; type: in vivo, Polygonum convolvulus; settings: 320 g/ha, visual rating about 3 weeks after treatment
Procedure: as §4

STEME [10] = experiment: Pre-emergence herbicidal action against STEME; type: in vivo, Stellaria media; settings: scored visually after about 3 weeks vs untreated controls
How it was run: as §3

ECHCG [11] = experiment: Pre-emergence herbicidal action against ECHCG; type: in vivo, Echinochloa crus-galli; settings: scored visually after about 3 weeks vs untreated controls, 100% = plants have died, 0% = like control plants
Text: as §1

ECHCG [12] = experiment: Post-emergence herbicidal action against ECHCG; type: in vivo, Echinochloa crus-galli; settings: 1280 g/ha, post-emergence at one-leaf stage, rated visually after about 3 weeks vs untreated controls
Procedure: as §4

SMILES | Pre-emergence action against VERPE in % (VERPE [1]) [%] | Pre-emergence action against POLCO in % (POLCO [2]) [%] | Post-emergence action against MATIN in % (MATIN; 320 g/ha) [%] | Pre-emergence action at 320 g/ha against AMARE in % (AMARE [3]) [%] | Post-emergence action against AMARE in % (AMARE [4]; 320 g/ha) [%] | Post-emergence action against PHBPU in % (PHBPU) [%] | Post-emergence action against VIOTR in % (VIOTR) [%] | Post-emergence action against VERPE in % (VERPE [5]) [%] | Post-emergence action against STEME in % (STEME [6]; 1280 g/ha) [%] | Pre-emergence action against SETVI in % (SETVI [7]) [%] | Post-emergence action against SETVI in % (SETVI [8]) [%] | Post-emergence action against POLCO in % (POLCO [9]) [%] | Post-emergence action against MATIN in % (MATIN; 1280 g/ha) [%] | Pre-emergence action against AMARE in % (AMARE [3]) [%] | Post-emergence action against AMARE in % (AMARE [4]; 1280 g/ha) [%] | Pre-emergence action against STEME in % (STEME [10]; 1280 g/ha) [%] | Pre-emergence action at 1280 g/ha against ECHCG in % (ECHCG [11]) [%] | Post-emergence action against ECHCG in % (ECHCG [12]) [%] | Post-emergence action against STEME in % (STEME [6]; 320 g/ha) [%] | Pre-emergence action against STEME in % (STEME [10]; 320 g/ha) [%]
O=C(O)COc1nn(-c2ccccc2F)c(-c2ccccc2)c1Br [I-082] | 80 | 80 | 80 | 90 | 80 | 90 | 100 | 80 |  |  |  |  |  |  |  |  |  |  |  | 
COC(=O)C(C)Oc1nn(-c2ccccc2)c(-c2cc(F)cc(F)c2)c1Cl (stereo not shown) [I-165, Methyl 2-{[4-chloro-5-(3,5-difluorophenyl)-1-phenyl-1H-pyrazol-3-yl]oxy}propanoate] | 100 |  |  | 90 |  | 80 | 80 | 80 | 100 | 100 | 90 | 80 | 100 | 100 | 100 | 100 |  |  |  | 
COC(=O)COc1nn(-c2ccc(Cl)cc2)c(-c2ccccc2)c1Cl [I-001] |  | 90 |  |  |  |  |  |  |  |  |  |  |  |  |  |  |  |  |  | 
CCOC(=O)COc1nn(-c2ccc(F)cc2F)c(-c2ccccc2)c1Br [I-079] |  | 80 | 80 | 80 | 80 | 90 | 100 | 80 | 100 | 100 | 100 | 80 | 100 | 100 | 100 | 100 | 90 | 100 |  | 
CCOC(=O)COc1nn(-c2ccc(F)cc2F)c(-c2ccc(F)cc2)c1Br [I-081] | 80 | 100 | 80 | 80 | 90 | 90 | 100 | 80 | 100 | 100 | 90 | 80 | 100 | 100 | 100 | 100 | 90 | 90 | 80 | 80
C#CCNC(=O)COc1nn(-c2ccccc2)c(-c2ccc(F)cc2)c1Br [III-006] | 90 | 90 |  | 90 | 80 | 80 | 80 | 80 |  | 100 |  |  |  | 90 | 100 | 100 | 100 |  |  | 
COC(=O)COc1nn(-c2ccccc2)c(-c2ccc(F)cc2)c1Br [I-101] |  | 100 | 90 | 90 | 80 | 90 | 100 | 80 |  | 100 |  |  | 90 | 90 | 100 | 100 | 100 |  |  | 
C=CCNC(=O)COc1nn(-c2ccccc2)c(-c2ccc(F)cc2)c1Br [III-004] | 100 |  |  | 80 | 80 | 80 |  |  |  | 100 |  | 80 |  | 100 | 100 | 100 | 100 |  |  | 
CCOC(=O)COc1nn(-c2ccc(F)cc2F)c(-c2ccccc2)c1Cl [I-100] | 100 |  | 80 | 100 | 80 | 90 | 100 | 90 | 90 | 100 |  | 90 | 90 | 100 | 90 | 100 | 100 | 90 | 80 | 90
C[Si](C)(C)COC(=O)COc1nn(-c2ccccc2F)c(-c2ccc(F)c(F)c2)c1Br [I-102] | 80 | 100 | 80 | 90 | 80 | 90 | 90 | 80 | 100 | 100 |  |  | 100 | 100 | 90 | 90 | 100 |  |  | 90
C=CCNC(=O)COc1nn(-c2ccc(F)cc2)c(-c2cccc(F)c2)c1Br [III-015] | 90 | 90 |  |  | 80 | 80 | 80 | 90 |  | 100 |  | 80 |  | 100 |  | 100 | 100 |  |  | 
